Assay results published in PMC7878787 (Scientific Reports, 2021).
Read-outs that look alike come from different tables or passages of the source.

What was measured:
PC-3 xenografts = assay: Biodistribution in mice bearing PC-3 xenografts; format: in vivo, Balb/c nu/nu mice
Experimental: (§1) Mice were sacrificed 3 h and 22 h pi by intraperitoneal injection of a lethal dose of Ketalar-Rompun solution (10 mg/mL Ketaminol (Intervet) and 1 mg/mL Rompun (Bayer); 20 μL solution/gram of body weight). Tumors were collected as well as samples of blood, lung, liver, spleen, pancreas, stomach, small intestine, kidneys, muscle, and bone. Gastrointestinal (GI) tract and carcass were also collected. Samples were weighed, and measured for activity content in the automated gamma counter. Corrections for background, spill-over and decay were performed for all measurements.
(§2) Biodistribution of [^68Ga]Ga-NOTA-PEG2-RM26 3 h pi was included for comparison. Mice were therefore injected with 40–50 pmol (250 kBq) ^68Ga-NOTA-PEG2-RM26, euthanized 3 h pi and samples were collected according to the protocol described above.

[1] = Analysis of blood metabolites (radio-HPLC of plasma); format: in vivo; settings: 5 min pi, NMRI mice; for radiometal associated with intact peptide in blood plasma: 1.5 nmol (6.75–7.3 MBq)
Experimental: NMRI Mice were injected with 1.5 nmol (6.75–7.3 MBq) [^68Ga]Ga-NOTA-PEG2-RM26 and sacrificed 5 min pi by cervical dislocation. Immediately after blood was collected by heart puncture into a pre-chilled heparinized Eppendorf tube. Blood samples were centrifuged (10000RCF, 10 min at 4 °C), plasma was collected and mixed with equal amount of ice cold acetonitrile. The mixture was centrifuged (15,000 RCF, 10 min, 4 °C), the supernatant was collected and sterile filtered with a 0.2 µm PTFE syringe filter. The filtrate was analyzed on HPLC according to the method described above.

GRPR = target: T1, GRPR (Mus musculus, UniProt P21729); assay: In vivo specificity test (co-injection of non-labeled peptide); design: species or system Balb/c nu/nu mice; settings: 3 h pi, co-injection of 10 nmol non-labeled NOTA-PEG2-RM26, p < 0.002
T1 construct: Mice with GRPR-expressing PC-3 xenografts (implanted 21 d before the experiment) were used for all in vivo studies; from tissue; host or cells: PC-3 xenograft tumors in female Balb/c nu/nu mice
T1 sequence (P21729 whole entry): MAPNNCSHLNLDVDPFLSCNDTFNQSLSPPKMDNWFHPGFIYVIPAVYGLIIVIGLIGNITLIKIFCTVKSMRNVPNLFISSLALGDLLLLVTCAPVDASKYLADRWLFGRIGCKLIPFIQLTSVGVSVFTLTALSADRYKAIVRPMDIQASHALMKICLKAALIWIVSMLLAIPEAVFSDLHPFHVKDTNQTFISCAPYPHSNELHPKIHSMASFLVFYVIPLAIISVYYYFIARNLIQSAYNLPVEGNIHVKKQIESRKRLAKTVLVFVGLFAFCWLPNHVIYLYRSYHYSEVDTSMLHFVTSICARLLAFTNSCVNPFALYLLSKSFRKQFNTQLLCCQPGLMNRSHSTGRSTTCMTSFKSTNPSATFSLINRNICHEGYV
Experimental: For the in vivo specificity test, mice in the blocking group were co-injected with 10 nmol of non-labeled NOTA-PEG2-RM26 and sacrificed 3 h pi and samples were collected according to the protocol described above.

PC-3 cells = assay: Cellular processing (membrane-bound vs internalized activity); format: cell-based, human; settings: 2 nM, continuous incubation 24 h, 37 °C, n = 3
Experimental: At pre-determined time points (1 h, 2 h, 4 h, 24 h) cells were incubated with 0.2 M glycine buffer (with 0.15 M NaCl, 4 M Urea, pH 2) for 5 min on ice to collect the membrane-bound activity. Thereafter, cells were incubated at 37 °C for 30 min with 1 M NaOH and collected. Activity content in those samples was considered internalized activity.

[2] = Biodistribution in mice bearing PC-3 xenografts; format: in vivo, Balb/c nu/nu mice; settings: female, Balb/c nu/nu, mouse, iv, total radioactivity, 3 h pi, 40–50 pmol iv, female Balb/c nu/nu mice with PC-3 xenografts, average ± SD, n = 3–4
Experimental: as §1, §2

Q: Which “change of uptake in bone during the observation period” value (PC-3 xenografts; 3 to 22 h pi) does the source give for `CC(C)C[C@H](NC(=O)C[C@H](O)[C@H](CC(C)C)NC(=O)[C@H](Cc1c[nH]cn1)NC(=O)CNC(=O)[C@@H](NC(=O)[C@H](C)NC(=O)[C@H](Cc1c[nH]c2ccccc12)NC(=O)[C@H](CCC(N)=O)NC(=O)[C@@H](Cc1ccccc1)NC(=O)COCCOCCNC(=O)CN1CCN(CC(=O)O)CCN(CC(=O)O)CC1)C(C)C)C(N)=O` [[^66Ga]Ga-NOTA-PEG2-RM26] [metal not drawn] here?
A: Its value is “increased”.

Q: What about the “activity retained in tumors from 3 to 22 h pi” value (PC-3 xenografts; PC-3 xenografts) of the same compound?
A: The value was “approximately 50%”.

Q: What about the “change of uptake in GRPR-expressing pancreas from 3 to 22 h pi” value (PC-3 xenografts; p < 0.004) of the same compound?
A: The value was “decreased significantly”.

Q: Which results are given for `CC(C)C[C@H](NC(=O)C[C@H](O)[C@H](CC(C)C)NC(=O)[C@H](Cc1c[nH]cn1)NC(=O)CNC(=O)[C@@H](NC(=O)[C@H](C)NC(=O)[C@H](Cc1c[nH]c2ccccc12)NC(=O)[C@H](CCC(N)=O)NC(=O)[C@@H](Cc1ccccc1)NC(=O)COCCOCCNC(=O)CN1CCN(CC(=O)O)CCN(CC(=O)O)CC1)C(C)C)C(N)=O` [[^68Ga]Ga-NOTA-PEG2-RM26, metal not drawn]?
A: free gallium, share of activity in blood plasma [1]: 6%; radiometal associated with intact peptide in blood plasma [1]: up to 57%; radiometal associated with intact peptide in blood plasma ([1]; listed as gallium labeled NOTA-PEG2-RM26): up to 60%

Q: What does the source list for `CC(C)C[C@H](NC(=O)C[C@H](O)[C@H](CC(C)C)NC(=O)[C@H](Cc1c[nH]cn1)NC(=O)CNC(=O)[C@@H](NC(=O)[C@H](C)NC(=O)[C@H](Cc1c[nH]c2ccccc12)NC(=O)[C@H](CCC(N)=O)NC(=O)[C@@H](Cc1ccccc1)NC(=O)COCCOCCNC(=O)CN1CCN(CC(=O)O)CCN(CC(=O)O)CC1)C(C)C)C(N)=O` [[^66Ga]Ga-NOTA-PEG2-RM26, metal not drawn]?
A: uptake in pancreas, blocked vs non-blocked (GRPR): significant decrease; fraction of internalized activity, of cell-associated activity (PC-3 cells): 17%; tissue uptake at 3 h ([2]; bone, read-out: Uptake, Bone): 0.5 ± 0.3 %ID/g; tissue uptake at 3 h ([2]; kidney, read-out: Uptake, Kidney): 1.7 ± 0.4 %ID/g; tissue uptake at 3 h ([2]; liver, read-out: Uptake, Liver): 0.28 ± 0.06 %ID/g; tissue uptake at 3 h ([2]; lung, read-out: Uptake, Lung): 0.5 ± 0.4 %ID/g; tissue uptake at 3 h ([2]; pancreas, read-out: Uptake, Pancreas): 3.4 ± 0.7 %ID/g; tissue uptake at 3 h ([2]; stomach, read-out: Uptake, Stomach): 1.9 ± 0.4 %ID/g; tissue uptake at 3 h ([2]; tumor (PC-3 xenograft), read-out: Uptake, Tumor): 14 ± 1 %ID/g; tissue uptake at 3 h ([2]; whole blood, read-out: Uptake, Blood): 0.15 ± 0.06 %ID/g
